Measurements from patent US20250388565A1, “ESTROGEN RECEPTOR ALPHA DEGRADERS AND METHODS OF USE THEREOF” (Relay Therapeutics, Inc., priority 2022, published 2025).

Each molecule was assayed against T1, ERα protein (HiBiT-tagged) in ESR1_HiBiT KI MCF7 cells (Homo sapiens, UniProt P03372) (assay: Nano Glo HiBiT Lytic Degradation Assay). Conditions: 6 hours with compound, 14-point dose response 1:3, bell-shape curve fit, half-maximal effect of first Hill model, read-out: MCF7 ESR1 HiBiT - (DC50).
T1 sequence (P03372 1-595): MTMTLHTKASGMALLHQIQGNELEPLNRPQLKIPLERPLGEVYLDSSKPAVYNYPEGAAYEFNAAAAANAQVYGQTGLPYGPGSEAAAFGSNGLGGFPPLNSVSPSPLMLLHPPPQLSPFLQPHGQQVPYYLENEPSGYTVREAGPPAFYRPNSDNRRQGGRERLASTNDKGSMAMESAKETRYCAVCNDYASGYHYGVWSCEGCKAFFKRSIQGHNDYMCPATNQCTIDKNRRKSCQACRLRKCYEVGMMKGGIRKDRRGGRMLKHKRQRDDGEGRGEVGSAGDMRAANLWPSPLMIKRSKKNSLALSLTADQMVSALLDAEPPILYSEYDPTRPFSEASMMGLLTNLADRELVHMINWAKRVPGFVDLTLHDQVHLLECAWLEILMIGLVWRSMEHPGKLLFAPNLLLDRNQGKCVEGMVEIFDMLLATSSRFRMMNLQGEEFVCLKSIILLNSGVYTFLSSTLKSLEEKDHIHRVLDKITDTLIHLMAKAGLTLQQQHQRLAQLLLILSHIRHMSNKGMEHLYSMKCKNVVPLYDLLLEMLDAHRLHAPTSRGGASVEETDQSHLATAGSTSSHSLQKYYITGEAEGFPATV
Assay type: cell-based
Experimental: Selected compounds of the present disclosure were tested in a Nano Glo HiBiT Lytic Degradation Assay to measure the level of ERα protein degradation in MCF7 cells.
Cell culture: ESR1_HiBiT KI MCF7 cells were maintained in growth media without antibiotics. Cells were maintained in exponential growth phase, between 40% and 90% confluency.
Cell seeding: Cells were counted using a Vi-Cell and seeded in a 384-well flat-bottom microplate (cell culture-treated) at 4000 cells/well in 25 μL of growth medium using a BioTek MultiFlo Multimode Dispenser. Plates were incubated for 24 h at 37° C., 5% CO2, >95% relative humidity.
Compound preparation: Compounds were screened as 14-point dose response curves 1:3 dilutions. DMSO is used as the vehicle control and all wells were normalized to the same final DMSO concentration (0.1% v/v). Compounds were dosed using an Echo Acoustic Liquid Handler, 25 nL of 1000× (10 mM top concentration) DMSO stock/well. Cells were incubated with compounds for 6 hours at 37° C., 5% CO2, >95% relative humidity. Each compound was run in duplicate.
Nano Glo HiBiT Lytic Degradation Assay: HiBiT-tagged ERα protein levels were quantified using a Nano Glo HiBiT Lytic Degradation Assay following the manufacturer's protocol. Briefly, the Nano-Glo® HiBiT Lytic Reagent was prepared by diluting the LgBiT Protein reagent (1:100) and the Nano-Glo® HiBiT Lytic Substrate (1:50) into Nano-Glo® HiBiT Lytic Buffer at room temperature. The 384-well microplate were equilibrated to room temperature and 25 μL of Nano-Glo® HiBiT Lytic Reagent was added to each well. Samples were mixed by placing the 384-well microplate on an orbital shaker for 10 minutes. Luminescence was measured using an EnVision 2105 Multimode Plate Reader.
Data processing and analysis: Background signal (wells containing growth medium without cells) was subtracted from individual relative light units (RLU) values and the resulting values were normalized to the DMSO control well values. Dose responses were analyzed with Genedata Screener® using a bell-shape curve fit and the concentrations corresponding to the half-maximal effect of the first Hill model were used as DC50 values.
`O=C1CC[C@H](N2Cc3cc(N4CCN(CC5CCN(c6ccc(C7c8ccc(O)cc8CCC7c7ccncc7)cc6)CC5)CC4)ccc3C2=O)C(=O)N1` (stereo in doubt) [Compound I-133, (S)-3-(5-(4-((1-(4-((1R,2S)-6-hydroxy-2-(pyridine-4-yl)-1,2,3,4-tetrahydronaphthalen-1-yl)phenyl)piperidin-4-yl)methyl)piperazin-1-yl)-1-oxoisoindolin-2-yl)piperidine-2,6-dione] was tested, and the DC50 was at least 10000 nM. `C[C@@H]1O[C@H](C2CCCCC2)[C@H](c2ccc(N3CCC(CN4CCN(c5ccc6c(c5)CN([C@H]5CCC(=O)NC5=O)C6=O)CC4)CC3)cc2)c2ccc(O)cc21` (single isomer, unassigned) [Compound I-205, (S)-3-(5-(4-((1-(4-((1*S,3*R,4*R)-3-cyclohexyl-7-hydroxy-1-methylisochroman-4-yl)phenyl)piperidin-4-yl)methyl)piperazin-1-yl)-1-oxoisoindolin-2-yl)piperidine-2,6-dione] was tested, and the DC50 was 0.79 nM. In the case of `Cc1cc(F)c([C@@H]2CCc3cc(O)ccc3[C@@H]2c2ccc(N3CCC(CN4CCN(c5ccc6c(c5)CN([C@H]5CCC(=O)NC5=O)C6=O)CC4)CC3)cc2)cc1F` [II-76], the DC50 is reported as at least 10000 nM. `C[C@H]1O[C@H](c2ccccc2)[C@H](c2ccc(N3CCC(CN4CCN(c5ccc6c(c5)CN([C@H]5CCC(=O)NC5=O)C6=O)CC4)CC3)cc2)c2ccc(O)cc21` (single isomer, unassigned) [Compound I-367] showed a DC50 of 0.24 nM. `O=C1CC[C@@H](c2ccc(N3CCC4(CCN(CC5CCN(c6ccc([C@@H]7c8ccc(O)cc8CC[C@@H]7c7ccccc7)cc6)CC5)C4)CC3)cc2)C(=O)N1` (single isomer, unassigned) [Compound I-284] was tested, and the DC50 was at least 10000 nM. With `O=C1CC[C@H](N2Cc3cc(N4CCN(CC5CCN(c6ccc([C@H]7c8ccc(C(=O)O)cc8CC[C@H]7c7ccccc7)cc6)CC5)CC4)ccc3C2=O)C(=O)N1` (single isomer, unassigned) [Compound I-1] the DC50 was 3 nM. Molecule `O=C1CCN(c2ccc(N3CC[C@@]4(CCN(CC5CCN(c6ccc([C@@H]7c8ccc(O)cc8C(F)(F)C[C@@H]7c7ccccc7)cc6)CC5)C4)C3)cc2)C(=O)N1` (single isomer, unassigned) [Compound I-290] has a DC50 of 0.22 nM. `O=C1CC[C@H](N2Cc3cc(N4CCN(C(=O)C5CCN(c6ccc([C@@H]7c8ccc(O)cc8CC[C@@H]7c7ccccc7)cc6)CC5)CC4)ccc3C2=O)C(=O)N1` [II-68] was tested, and the DC50 was 0.5 nM. Molecule `Cc1c(F)cccc1[C@@H]1OCc2cc(O)ccc2[C@@H]1c1ccc(N2CCC(CN3CCN(c4ccc5c(c4)CN([C@H]4CCC(=O)NC4=O)C5=O)CC3)CC2)cc1` (single isomer, unassigned) [Compound I-380] has a DC50 of 77 nM. With `Cc1cc([C@H]2c3ccc(O)cc3CC[C@H]2c2ccccc2)ccc1N1CCC(CN2CCN(c3ccc4c(c3)CN([C@H]3CCC(=O)NC3=O)C4=O)CC2)CC1` (single isomer, unassigned) [II-43] the DC50 was 2 nM. Work on `C[C@]1(c2ccccc2)CCc2cc(O)ccc2[C@H]1c1ccc(N2CCC(CN3CCN(c4ccc5c(c4)CN([C@H]4CCC(=O)NC4=O)C5=O)CC3)CC2)cc1` [Compound I-147, (S)-3-(5-(4-((1-(4-((1S,2S)-6-hydroxy-2-methyl-2-phenyl-1,2,3,4-tetrahydronaphthalen-1-yl)phenyl)piperidin-4-yl)methyl)piperazin-1-yl)-1-oxoisoindolin-2-yl)piperidine-2,6-dione] yielded a DC50 of 0.42 nM. With `Cc1cc(N2CCC3(CCN(CC4CCN(c5ccc([C@@H]6c7ccc(O)cc7C(F)(F)C[C@@H]6c6ccccc6)cc5)CC4)C3)CC2)ccc1N1CCC(=O)NC1=O` (single isomer, unassigned) [Compound I-294] the DC50 was 0.28 nM. `O=C1CC[C@H](N2Cc3cc(N4CCN(CC5CCN(c6ccc([C@@H]7c8ccc(O)cc8CC[C@@H]7c7ccccc7)nc6)CC5)CC4)ccc3C2=O)C(=O)N1` [II-78] was tested, and the DC50 was 1.37 nM. In the case of `O=C1CC[C@H](N2Cc3cc(N4CCN(CC5CCN(c6ccc([C@H]7c8ccc(O)cc8CO[C@H]7c7ccc(C(F)(F)F)cc7)cc6)CC5)CC4)ccc3C2=O)C(=O)N1` (single isomer, unassigned) [Compound I-56], the DC50 is reported as 7.75 nM. For `O=C1CC[C@H](N2Cc3cc(N4CCN(CC5CCN(c6cc(F)c(C7=C(c8ccccc8)CCc8cc(O)ccc87)c(F)c6)CC5)CC4)ccc3C2=O)C(=O)N1` [Compound I-10, (S)-3-(5-(4-((1-(3,5-difluoro-4-(6-hydroxy-2-phenyl-3,4-dihydronaphthalen-1-yl)phenyl)piperidin-4-yl)methyl)piperazin-1-yl)-1-oxoisoindolin-2-yl)piperidine-2,6-dione], the DC50 was 16 nM. With `O=C1CC[C@H](N2Cc3cc(N4CCN(CC5CCN(c6ccc([C@H]7c8ccc(O)cc8CC[C@H]7C7CCCCC7)nc6)CC5)CC4)ccc3C2=O)C(=O)N1` [Compound I-150, (S)-3-(5-(4-((1-(6-((1R,2S)-2-cyclohexyl-6-hydroxy-1,2,3,4-tetrahydronaphthalen-1-yl)pyridin-3-yl)piperidin-4-yl)methyl)piperazin-1-yl)-1-oxoisoindolin-2-yl)piperidine-2,6-dione] the DC50 was at least 10000 nM. For `C[C@H](C1CCN(c2ccc([C@@H]3c4ccc(O)cc4CC[C@@H]3c3ccccc3)cc2)CC1)N1CCN(c2ccc3c(c2)CN(C2CCC(=O)NC2=O)C3=O)CC1` (single isomer, unassigned) [II-69], the DC50 was 0.51 nM. For `O=C1CC[C@@H](N2Cc3cc(N4CCN(CC5CCN(c6ccc([C@@H]7c8ccc(O)cc8C(F)(F)C[C@@H]7c7ccccc7)cc6)CC5)CC4)ccc3C2=O)C(=O)N1` [Compound I-306, (R)-3-(5-(4-((1-(4-((1R,2S)-4,4-difluoro-6-hydroxy-2-phenyl-1,2,3,4-tetrahydronaphthalen-1-yl)phenyl)piperidin-4-yl)methyl)piperazin-1-yl)-1-oxoisoindolin-2-yl)piperidine-2,6-dione], the DC50 was 0.6 nM. Molecule `C[C@@]1(C2CCCCC2)OCc2cc(O)ccc2[C@H]1c1ccc(N2CCC(CN3CCN(c4ccc5c(c4)CN([C@H]4CCC(=O)NC4=O)C5=O)CC3)CC2)cc1` [Compound I-258, (S)-3-(5-(4-((1-(4-((3S,4R)-3-cyclohexyl-7-hydroxy-3-methylisochroman-4-yl)phenyl)piperidin-4-yl)methyl)piperazin-1-yl)-1-oxoisoindolin-2-yl)piperidine-2,6-dione] has a DC50 of 1 nM. `O=C1CC[C@H](N2Cc3cc(N4CCN(CC5CCN(c6ccc([C@@H]7c8ccc(O)cc8CC[C@@H]7c7cccc(OC(F)(F)F)c7)cc6)CC5)CC4)ccc3C2=O)C(=O)N1` (single isomer, unassigned) [Compound I-109] gave a DC50 of 1400 nM. In the case of `C[C@@H]1CN(CC2CCN(c3ccc([C@H]4c5ccc(O)cc5CC[C@H]4c4ccccc4)cc3)CC2)CCN1c1ccc2c(c1)CN([C@H]1CCC(=O)NC1=O)C2=O` (single isomer, unassigned) [II-4], the DC50 is reported as 1140 nM. For `Cc1cc([C@@H]2OCc3cc(O)ccc3[C@@H]2c2ccc(N3CCC(CN4CCN(c5ccc6c(c5)CN([C@H]5CCC(=O)NC5=O)C6=O)CC4)CC3)cc2)ccc1F` [Compound I-376, (S)-3-(5-(4-((1-(4-((3R,4S)-3-(4-fluoro-3-methylphenyl)-7-hydroxyisochroman-4-yl)phenyl)piperidin-4-yl)methyl)piperazin-1-yl)-1-oxoisoindolin-2-yl)piperidine-2,6-dione], the DC50 was at least 10000 nM. `CC(C)[C@H]1CC(F)(F)c2cc(O)ccc2[C@H]1c1ccc(N2CCC(CN3CCN(c4ccc5c(c4)CN([C@H]4CCC(=O)NC4=O)C5=O)CC3)CC2)cc1` [Compound I-156, (S)-3-(5-(4-((1-(4-((1R,2R)-4,4-difluoro-6-hydroxy-2-isopropyl-1,2,3,4-tetrahydronaphthalen-1-yl)phenyl)piperidin-4-yl)methyl)piperazin-1-yl)-1-oxoisoindolin-2-yl)piperidine-2,6-dione] gave a DC50 of 0.4 nM.
